From US10023615B2, “Efficient transport into white blood cells” (priority 2008, dated 2018)
“Also recorded” adds a separate entry of the source. Ends that are not written are not given here.

Columns and labels:
[1] = test system: primary cultured macrophages; assay: Incorporation of XG-102 into primary cultured macrophages, antibody detection; format: cell-based; conditions: incubated and extensively washed; specific antibody
Procedure: FIG. 5: (A): Primary cultured macrophages were incubated with XG-102 (SEQ ID NO: 233) and extensively washed. […] (B): Mice were injected i.v. with 0.1 mg/kg FITC-D-TAT (SEQ ID NO: 4 plus FITC) and were sacrificed 24 hours later with PAF perfusion through the heart. Slices were obtained after cryoprotection using cryostat.

[2] = test system: noise trauma (120 dB at 6 kHz); assay: Treatment of noise trauma, auditory brainstem response; format: in vivo, guinea pigs; conditions: 100 μM in hyaluronic acid gel on round window membrane; before or after noise trauma
Procedure: 19. […] Untreated ears served as control. Hearing threshold shifts are evaluated by auditory brainstem response measurements 20 minutes after noise trauma (temporary threshold shift, TTS) and 15 days following the trauma (permanent threshold shift, PTS).

[3] = test system: amyloid plaques in cortex and hippocampus; assay: Amyloid depositions and plaque load (6E10 IHC, ThioflavinS) in hAPP Tg mice; format: in vivo, mouse
Procedure: a) METHODS • i) Introduction • The study was designed to evaluate the efficacy of the test substance (XG-102, SEQ ID NO: 233) on behavioral, biochemical and histological markers using 5 months (±2 weeks) old female hAPP Tg mice. Therefore, mice were treated every two or three weeks up to 4 months and in the end of the treatment period behavior was evaluated in the Morris Water Maze. At sacrifice brain, CSF and blood were collected. Aβ40 and Aβ42 levels were determined in four different brain homogenate fractions as well as in CSF of Tg mice. Plaque load was quantified in the cortex and the hippocampus of 8 Tg animals per treatment group.
iv) Treatment • […] female hAPP transgenic mice were treated with either 0.1 mg/kg b.w./every two weeks or 10 mg/kg b.w./every three weeks of the test substance XG-102 (SEQ ID NO: 233) in two different dosages (n=12/group) or treated with the vehicle (n=12) s.c. once every three weeks over four months.
viii) Evaluation of Brain Morphology • Brain tissues of all Tg animals investigated were handled in exactly the same way to avoid bias due to variation of this procedure. From brain halves of 24 Tg mice (8 of each group) 20 cryo-sections per layer (altogether 5 layers), each 10 μm thick (Leica CM 3050S) were sagittally cut and 5 (one from each layer) were processed and evaluated for quantification of plaque load. The five sagittal layers corresponded with the FIGS. 104 to 105, 107 to 108, 111 to 112, 115 to 116 and 118 to 119 according to the morphology atlas “The Mouse Brain” from Paxinos and Franklin (2nd edition). The first layer was specified by the requirement to include the whole hippocampus with it's regions CA1, CA2, CA3, GDlb and GDmb. Immunoreactivity was quantitatively evaluated in the hippocampus and in the cortex using the monoclonal human Aβ-specific antibody 6E10 (Signet) as well as ThioflavinS staining. Remaining brain hemispheres or tissue not used were saved and stored at JSW CNS until the end of the project.
b) Evaluation • i) Behavior • In the Morris Water Maze trials length of swimming path, escape latencies, swimming speed and in the probe trial crossings over the former platform position and the time spent in each quadrant of the pool were measured for each Tg animal with a special computer software. • ii) Biochemical Evaluation • From all Tg mice CSF samples as well as samples from the brain preparations were analyzed with commercially available Aβ1-40 and Aβ1-42 ELISAs. Measurements of adequate standards were performed concurrently. Samples from brain preparations were analyzed in duplicates. […]

**Q.** With “dqsrpvqpflnIttprkprpprrrqrrkkrg (DQSRPVQPFLNLTTPRKPRPPRRRQRRKKRG; not fully specified (some residues); printed as dqsrpvqpflnIttprkprpprrrqrrkkrg) [XG-102]” as the substance, how does the incorporation into cells [1] read?
**A.** strongly incorporated into primary macrophages

**Q.** What about the “permanent hearing loss (permanent threshold shift)” value [2] of the same substance?
**A.** protected against permanent hearing loss even if applied after exposure to excessive noise

**Q.** And the “mean plaque size (ThioflavinS, hippocampus)” value ([3]; 0.1 mg/kg)?
**A.** reduced mean plaque size, however this effect did not reach significance level in the ANOVA

**Q.** What about the “6E10 IR plaque load (human amyloid)” value ([3]; 10 mg/kg) of the same substance?
**A.** increased versus vehicle; also recorded: a tendentious increase of human amyloid beta

**Q.** What about the “hippocampal ThioflavinS positive plaques (number, area percentage)” value ([3]; 0.1 and 10 mg/kg) of the same substance?
**A.** a negatively dose dependent reduction; also recorded: dose dependently reduced

**Q.** What about the “beta-sheet structures in plaques (6E10 and ThioflavinS quantifications)” value ([3]; mouse, in vivo) of the same substance?
**A.** a selective reduction of beta-sheet structures in the center of the plaques

**Q.** And the “cortical ThioflavinS plaque load” value ([3]; mouse, in vivo)?
**A.** not given for cortical plaques; also recorded: cortical plaque load remained unchanged
